Measurements taken from US20220175798A1, “COMPOSITIONS COMPRISING OXYGENATED CHOLESTEROL SULFATE AND AT LEAST ONE OF POLYALKYLENE GLYCOL, CARBOXYMETHYL CELLULOSE AND POLYOXYLGLYCERIDE” (Durect Corporation, priority 2016, published 2022).
“And” between values parts separate entries of the source, which are not always exact repeats. Equal values may be shown once.

Experiment: Particle size analysis by Malvern Mastersizer 2000 (laser diffraction)
Assay type: physicochemical
Experimental: Two lots of 25HC3S sodium salt (Lot #A and Lot #B) were first passed through either 20 mesh or 35 mesh stainless steel sieves for particle size analysis. The particle sizes were further reduced by jet milling and analyzed again. All particle size analyses were determined using a Malvern Mastersizer 2000.
Fluid Energy Model 00 Jet-O-Mizer was used for all jet-milling. Malvern Mastersizer 2000 equipped with a Hydro 2000S dispersion cell was used for particle size analysis.
Approximately 60 mg of API was weighed into a 4 mL screw cap vial and 1 mL water, USP was added to the vial. […] Duplicate samples from each single sample preparation were analyzed.
Particle refractive index was assumed to be 1.53 (not measured by refractometer) and particle absorption index was 0.01. Dispersant (water, USP, presaturated with 25HC3 S) refractive index was 1.33. […] Throughout the measurement, the pump rate was 3000 rpm without sonication. The measurement integration time was 20,000 ms; the numbers of measurements for each sample were 5 with a 20 seconds delay in between two measurements. Analysis model: General purpose

[1] = 20 mesh sieve then Jet milling 1st pass (1st milling sample, feed rate not controlled), sodium salt
[2] = 20 mesh sieve then Jet milling 1st pass (2nd milling sample, feed rate 1 g/min)
[3] = 20 mesh sieve then Jet milling 2nd pass, sodium salt
[4] = 20 mesh sieve then Jet milling 3rd pass, sodium salt
[5] = Press through 20 mesh sieve with a stainless steel spatula, sodium salt
[6] = Press through 35 mesh sieve with a stainless steel spatula

C[C@H](CCCC(C)(C)O)[C@H]1CC[C@H]2[C@@H]3CC=C4C[C@@H](OS(=O)(=O)[O-])CC[C@]4(C)[C@H]3CC[C@]12C.[Na+] [Lot# B, 25HC3S sodium salt]
d (0.9) (20 mesh sieve then Jet milling 1st pass (1st milling sample, feed rate not controlled), listed as Lot #B, sodium salt): 22.07 μm and 16.17 μm
d (0.1) [1]: 2.148 μm and 1.822 μm
d (0.5) [1]: 6.858 μm and 5.126 μm
d (0.9) [1]: 29.028 μm and 22.070 μm
d (0.1) [2]: 1.253 μm
d (0.5) [2]: 3.172 μm
d (0.9) (20 mesh sieve then Jet milling 1st pass (2nd milling sample, feed rate 1 g/min), listed as Lot #B, sodium salt): 9.09 μm
d (0.9) (20 mesh sieve then Jet milling 1st pass (2nd milling sample, feed rate 1 g/min), sodium salt): 9.090 μm
d (0.1) [3]: 1.431 μm and 1.109 μm
d (0.5) [3]: 4.192 μm and 3.920 μm
d (0.9) [3]: 15.878 μm and 13.196^4 μm
d (0.1) [4]: 0.976 μm and 0.651 μm
d (0.5) [4]: 4.251 μm and 2.329 μm
d (0.9) [4]: 16.17 μm
d (0.1) [5]: 4.132 μm and 4.947 μm
d (0.5) [5]: 15.439 μm and 21.437 μm
d (0.9) [5]: 43.740 μm and 68.250 μm

C[C@H](CCCC(C)(C)O)[C@H]1CC[C@H]2[C@@H]3CC=C4C[C@@H](OS(=O)(=O)[O-])CC[C@]4(C)[C@H]3CC[C@]12C.[Na+] [Lot# A, 25HC3S sodium salt]
d (0.9) (20 mesh sieve then Jet milling 1st pass (1st milling sample, feed rate not controlled), listed as Lot #A, sodium salt): 5.180 μm
d (0.1) [1]: 0.705 μm
d (0.5) [1]: 2.091 μm
d (0.9) [1]: 5.180 μm
d (0.1) [3]: 0.384 μm and 0.496 μm
d (0.5) [3]: 1.214 μm and 1.320 μm
d (0.9) [3]: 4.026 μm and 4.035 μm
d (0.9) (20 mesh sieve then Jet milling 3rd pass, listed as Lot #A, sodium salt): 2.755 μm
d (0.1) [4]: 0.137 μm and 0.120 μm
d (0.5) [4]: 0.664 μm and 0.580 μm
d (0.9) [4]: 2.896 μm and 2.755 μm
d (0.1) [5]: 2.268 μm and 2.474 μm
d (0.5) [5]: 6.324 μm and 6.905 μm
d (0.9) [5]: 18.712 μm and 20.290 μm
d (0.1) [6]: 2.536 μm
d (0.5) [6]: 7.147 μm
d (0.9) [6]: 22.195 μm
